Laboratory results taken from patent publication US20250197368A1 (priority 2020, published 2025).

Key:
Male Sprague Dawley rats = experiment: Elevated plus maze assay; assay type: in vivo; details: for percent time spent on open arms versus vehicle treated rats: rat; for effect in the rat elevated plus maze assay: dosed orally
From the text: The method, which detects anxiolytic activity, follows that described by Handley and Mithani (Naunyn. Schmied. Arch. Pharmacol., 327, 1-5, 1984). Rodents avoid open spaces (the open arms of an elevated plus-maze). Anxiolytics increase exploratory activity in the open arms, as indicated by increased time spent on the open arms and/or by increased % open-arm entries.
The maze was made from black matte acrylic and consisted of 4 arms of equal length and width (50×10 cm) arranged in the form of a plus sign (+). Two opposite arms were enclosed by 40 cm high walls (closed arms). The two other arms have no walls (open arms). The maze was raised approximately 65 cm above the floor.
Male Sprague Dawley rats (c. 200-300 g) were used for the study. 13 to 15 rats were studied per group.
Compounds were evaluated at three or four doses, administered p.o. 30 minutes to 2 hours before the test, at 5 mL per kg of body weight and its effects compared with vehicle-treated group.-Chlordiazepoxide hydrochloride (5 mg/kg, prepared in 0.9% saline), administered i.p. 30 minutes before the test, was used as reference substance to compare with the vehicle treated group.
The day before the test, rats were weighed. The compounds were prepared at least 24 hours before the test day. 30 minutes after dosing, each rat was placed in the centre of the apparatus and its behaviour was recorded for 5 minutes. The animals' behaviour on the maze was tracked using a camera mounted above the maze and the image analysed using EthoVision XT 13 video tracking software.
The percentage of time spent in the open arms was calculated by dividing the time spent on open arms to the total time in the maze.
Data were analysed by comparing treated groups with vehicle control group using one-way ANOVA followed by post-hoc Dunnett's tests.

human α3β3γ2 GABAARs = experiment: In vitro electrophysiological recording assay (automated patch-clamp), α3-GABAAR relative efficacy; assay type: cell-based; details: % efficacy normalised to diazepam; GABA EC10-20; concentration generally >= 100 times Ki
In short: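 Relative efficacy is % enhancement of the leak-subtracted GABA EC10-20 peak current, divided by the separately measured diazepam value; compound generally tested at ≥100× Ki after ≥1 min pre-application. Recordings at room temperature, human receptors stably expressed in L(tk^−) (QPatch, −65 mV) or HEK293 (SyncroPatch, −80 mV) cells.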

## CCCNC(=O)c1c(N)c2cccc(-c3nc(C)ncc3F)c2[nH]c1=O [Example 40, 4-Amino-8-(5-fluoro-2-methyl-pyrimidin-4-yl)-2-oxo-N-propyl-1H-quinoline-3-carboxamide]
Male Sprague Dawley rats; 0.3, 1 and 3 mg/kg p.o.
  percent time spent on open arms versus vehicle treated rats: significantly higher
Male Sprague Dawley rats
  effect in the rat elevated plus maze assay: anxiolytic-like effects
Human α3β3γ2 GABAARs
  α3-GABAAR Relative Efficacy (vs. Diazepam): 0.31

## CCCNC(=O)c1c(N)c2cccc(-c3cnc(C)cc3OC)c2[nH]c1=O [Example 18, 4-Amino-8-(4-methoxy-6-methyl-3-pyridyl)-2-oxo-N-propyl-1H-quinoline-3-carboxamide]
Male Sprague Dawley rats; 1 and 3 mg/kg p.o.
  percent time spent on open arms versus vehicle treated rats: significantly higher
Male Sprague Dawley rats
  effect in the rat elevated plus maze assay: anxiolytic-like effects
Human α3β3γ2 GABAARs
  α3-GABAAR Relative Efficacy (vs. Diazepam): 0.21

## CCCNC(=O)c1c(N)c2cccc(-c3cnccc3OC)c2[nH]c1=O [Example 17, 4-Amino-8-(4-methoxy-3-pyridyl)-2-oxo-N-propyl-1H-quinoline-3-carboxamide]
Male Sprague Dawley rats; 1, 3, and 10 mg/kg p.o.
  percent time spent on open arms versus vehicle treated rats: significantly higher
Male Sprague Dawley rats
  effect in the rat elevated plus maze assay: anxiolytic-like effects
Human α3β3γ2 GABAARs
  α3-GABAAR Relative Efficacy (vs. Diazepam): 0.42
